According to PubChem BioAssay (NCI):
Where “and” joins values, the source holds several entries; their conditions need not be identical. Equal entries are not always repeated.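 Following 48 hours of exposure in 96-well plates, responses at five concentrations were used to interpolate endpoints linearly. The concentration for 50% growth inhibition is given as GI50. TGI: concentration producing complete growth inhibition.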

Assays:
Assay in all cases: DTP human tumour cell line panel, 48 h
SK-MEL-28 melanoma = test system: SK-MEL-28 melanoma
HOP-92 NSCLC = test system: HOP-92 NSCLC
MDA-MB-435 = test system: MDA-MB-435
MDA-MB-231 breast = test system: MDA-MB-231 breast
HL-60(TB) leukemia = test system: HL-60(TB) leukemia
HCT-15 colon = test system: HCT-15 colon
MALME-3M melanoma = test system: MALME-3M melanoma
LOX IMVI melanoma = test system: LOX IMVI melanoma
RXF 393 renal = test system: RXF 393 renal
HCT-116 colon = test system: HCT-116 colon
COLO 205 colon = test system: COLO 205 colon
NCI/ADR-RES ovarian = test system: NCI/ADR-RES ovarian
KM12 colon = test system: KM12 colon
U251 CNS = test system: U251 CNS
NCI-H522 lung = test system: NCI-H522 lung
NCI-H23 lung = test system: NCI-H23 lung
HT29 colon = test system: HT29 colon
A549 NSCLC = test system: A549 NSCLC
SK-MEL-5 melanoma = test system: SK-MEL-5 melanoma
OVCAR-8 ovarian = test system: OVCAR-8 ovarian
SK-OV-3 ovarian = test system: SK-OV-3 ovarian
SF-539 CNS = test system: SF-539 CNS
CAKI-1 renal = test system: CAKI-1 renal
EKVX NSCLC = test system: EKVX NSCLC
SK-MEL-2 melanoma = test system: SK-MEL-2 melanoma
OVCAR-5 ovarian = test system: OVCAR-5 ovarian
ACHN renal = test system: ACHN renal
NCI-H460 lung = test system: NCI-H460 lung
K-562 leukemia = test system: K-562 leukemia
SF-295 CNS = test system: SF-295 CNS
T-47D breast = test system: T-47D breast
NCI-H226 lung = test system: NCI-H226 lung
UO-31 renal = test system: UO-31 renal
UACC-62 melanoma = test system: UACC-62 melanoma
SNB-19 CNS = test system: SNB-19 CNS
MCF7 breast = test system: MCF7 breast
DU-145 prostate = test system: DU-145 prostate
PC-3 prostate = test system: PC-3 prostate
HCC-2998 colon = test system: HCC-2998 colon
SN12C renal = test system: SN12C renal
OVCAR-3 ovarian = test system: OVCAR-3 ovarian
TK-10 renal = test system: TK-10 renal
SF-268 CNS = test system: SF-268 CNS
786-0 renal = test system: 786-0 renal
M14 melanoma = test system: M14 melanoma
BT-549 breast = test system: BT-549 breast
SW-620 colon = test system: SW-620 colon
CCRF-CEM leukemia = test system: CCRF-CEM leukemia
HOP-62 NSCLC = test system: HOP-62 NSCLC
A498 renal = test system: A498 renal
RPMI-8226 leukemia = test system: RPMI-8226 leukemia
OVCAR-4 ovarian = test system: OVCAR-4 ovarian
MOLT-4 leukemia = test system: MOLT-4 leukemia
IGROV1 ovarian = test system: IGROV1 ovarian
UACC-257 melanoma = test system: UACC-257 melanoma
HS 578T breast = test system: HS 578T breast
SNB-75 CNS = test system: SNB-75 CNS

Work on `CCCCCCCCCC[C@@H](O)[C@H]1CC[C@H]([C@H]2CC[C@H]([C@H](O)CCCCCCCCCC[C@@H]3CC(CC(C)=O)C(=O)O3)O2)O1` (some centres undefined) yielded a GI50 (SK-MEL-28 melanoma) of 5.26 µM, a TGI (SK-MEL-28 melanoma) of over 50 µM and a GI50 (HOP-92 NSCLC) of 2.41 µM. For the same compound, the TGI (HOP-92 NSCLC) was 8.42 µM and > 50 µM, the GI50 (MDA-MB-435) was 1.86 µM and the TGI (MDA-MB-435) was over 50 µM. For the same compound, the TGI (MDA-MB-231 breast) was over 50 µM, the GI50 (HL-60(TB) leukemia) was 2.25 µM and the TGI (HL-60(TB) leukemia) was 9.6 µM and > 50 µM. The GI50 (HCT-15 colon) was 7.21 µM, the TGI (HCT-15 colon) was over 50 µM and the TGI (MALME-3M melanoma) was over 50 µM. For the same compound, the GI50 (LOX IMVI melanoma) was 0.935 µM, the TGI (LOX IMVI melanoma) was over 50 µM and the TGI (RXF 393 renal) was over 50 µM. For the same compound, the GI50 (HCT-116 colon) was 1.32 µM, the TGI (HCT-116 colon) was over 37.2 µM and the GI50 (COLO 205 colon) was 6.71 µM. The TGI (COLO 205 colon) was over 29.5 µM, the GI50 (NCI/ADR-RES ovarian) was 0.377 µM and the GI50 (KM12 colon) was 3.34 µM. For the same compound, the TGI (KM12 colon) was over 50 µM, the GI50 (U251 CNS) was 7.12 µM and the TGI (U251 CNS) was over 50 µM. It also gave a TGI (NCI-H522 lung) of over 50 µM, a TGI (NCI-H23 lung) of over 50 µM and a TGI (HT29 colon) of over 50 µM. It also gave a TGI (A549 NSCLC) of over 50 µM, a GI50 (SK-MEL-5 melanoma) of 1.97 µM and a TGI (SK-MEL-5 melanoma) of over 21.5 µM. The TGI (OVCAR-8 ovarian) was over 50 µM, the TGI (SK-OV-3 ovarian) was over 50 µM and the TGI (SF-539 CNS) was over 50 µM. It also gave a TGI (CAKI-1 renal) of over 50 µM, a GI50 (EKVX NSCLC) of 1.57 µM and a TGI (EKVX NSCLC) of over 50 µM. It also gave a GI50 (SK-MEL-2 melanoma) of 4.06 µM, a TGI (SK-MEL-2 melanoma) of over 50 µM and a TGI (OVCAR-5 ovarian) of over 50 µM. The GI50 (ACHN renal) was 0.422 µM, the TGI (ACHN renal) was over 50 µM and the TGI (NCI-H460 lung) was over 50 µM. It also gave a GI50 (K-562 leukemia) of 0.884 µM, a TGI (K-562 leukemia) of over 50 µM and a GI50 (SF-295 CNS) of 2.22 µM. For the same compound, the TGI (SF-295 CNS) was over 50 µM, the TGI (T-47D breast) was over 50 µM and the GI50 (NCI-H226 lung) was 1.43 µM. The TGI (NCI-H226 lung) was 6.56 µM and > 50 µM, the GI50 (UO-31 renal) was 1.66 µM and the TGI (UO-31 renal) was over 50 µM. It also gave a GI50 (UACC-62 melanoma) of 14.9 µM, a TGI (UACC-62 melanoma) of over 50 µM and a GI50 (SNB-19 CNS) of 1.08 µM. The TGI (SNB-19 CNS) was over 50 µM, the GI50 (MCF7 breast) was 1.85 µM and the TGI (MCF7 breast) was over 50 µM. It also gave a TGI (DU-145 prostate) of over 50 µM, a GI50 (PC-3 prostate) of 5.3 µM and a TGI (PC-3 prostate) of over 50 µM. For the same compound, the TGI (HCC-2998 colon) was over 50 µM, the TGI (SN12C renal) was over 50 µM and the GI50 (OVCAR-3 ovarian) was 4.48 µM. For the same compound, the TGI (OVCAR-3 ovarian) was over 50 µM, the GI50 (TK-10 renal) was 2.33 µM and the TGI (TK-10 renal) was over 50 µM. For the same compound, the GI50 (SF-268 CNS) was 4.95 µM, the TGI (SF-268 CNS) was over 50 µM and the TGI (786-0 renal) was over 50 µM. It also gave a GI50 (M14 melanoma) of 5.29 µM, a TGI (M14 melanoma) of over 50 µM and a TGI (BT-549 breast) of over 50 µM. For the same compound, the GI50 (SW-620 colon) was 5.19 µM, the TGI (SW-620 colon) was over 50 µM and the GI50 (CCRF-CEM leukemia) was 1.74 µM. The TGI (CCRF-CEM leukemia) was over 50 µM, the TGI (HOP-62 NSCLC) was over 50 µM and the GI50 (A498 renal) was 7.44 µM. It also gave a TGI (A498 renal) of over 50 µM, a GI50 (RPMI-8226 leukemia) of 1.39 µM and a TGI (RPMI-8226 leukemia) of over 50 µM. For the same compound, the TGI (OVCAR-4 ovarian) was over 50 µM, the TGI (MOLT-4 leukemia) was over 50 µM and the TGI (IGROV1 ovarian) was over 50 µM. The TGI (UACC-257 melanoma) was over 50 µM, the GI50 (HS 578T breast) was 8.36 µM and the TGI (HS 578T breast) was over 50 µM. The GI50 (SNB-75 CNS) was 3.88 µM and the TGI (SNB-75 CNS) was over 50 µM.
